According to patent US12568972B2, “Pyridazinol compounds and derivatives, preparation methods, herbicidal compositions and applications thereof” (Qingdao Kingagroot Chemical Compound Co., Ltd., priority 2018, dated 2026):

Columns and labels:
Experiment in all cases: Post-emergence test, weed control effect
Format in all cases: in vivo
Conditions in all cases: after 3 weeks
[1] = system: Amaranthus retroflexus
Method in brief: (§1)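 Weeds grown from seed in soil-filled pots in a greenhouse were sprayed at the 2-3 leaf stage, 2-3 weeks after sowing, with compound in acetone/Tween-80/water plus 80% vegetable oil methyl ester synergist at 1500 g/ha. Fresh-weight inhibition was scored on a 0-10 scale after 3 weeks.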

[2] = system: Chenopodiaceae
Method in brief: as §1

[3] = system: Rorippa indica
Method in brief: as §1

[4] = system: Veronica polita
Method in brief: as §1

CC(C)COC(=O)Oc1cc(C(F)(F)F)nnc1-c1cccc(C(F)(F)F)c1 [Compound 1-30]
10: weed control effect, Amaranthus retroflexus (activity level) ([1]; Dose 3000 g/ha) | weed control effect, Chenopodiaceae (activity level) ([2]; Dose 3000 g/ha) | weed control effect, Rorippa indica (activity level) ([3]; Dose 3000 g/ha) | weed control effect, Veronica polita (activity level) ([4]; Dose 3000 g/ha)

O=C(Oc1cc(C(F)(F)F)nnc1-c1ccc(F)cc1)Sc1ccccc1 [Compound 1-164]
10: weed control effect, Amaranthus retroflexus (activity level) ([1]; Dose 3000 g/ha) | weed control effect, Chenopodiaceae (activity level) ([2]; Dose 3000 g/ha) | weed control effect, Rorippa indica (activity level) ([3]; Dose 3000 g/ha) | weed control effect, Veronica polita (activity level) ([4]; Dose 3000 g/ha)

O=S(=O)(Oc1cc(C(F)(F)F)nnc1-c1ccc(F)cc1)c1ccc(F)cc1 [Compound 1-134]
10: weed control effect, Amaranthus retroflexus (activity level) ([1]; Dose 3000 g/ha) | weed control effect, Chenopodiaceae (activity level) ([2]; Dose 3000 g/ha) | weed control effect, Rorippa indica (activity level) ([3]; Dose 3000 g/ha) | weed control effect, Veronica polita (activity level) ([4]; Dose 3000 g/ha)

CC(Cl)C(=O)Oc1cc(C(F)(F)F)nnc1-c1ccc(C(F)(F)F)cc1 (stereo not drawn) [Compound 1-22]
10: weed control effect, Amaranthus retroflexus (activity level) ([1]; Dose 3000 g/ha) | weed control effect, Chenopodiaceae (activity level) ([2]; Dose 3000 g/ha) | weed control effect, Rorippa indica (activity level) ([3]; Dose 3000 g/ha) | weed control effect, Veronica polita (activity level) ([4]; Dose 3000 g/ha)

O=[N+]([O-])c1cc(-c2nnc(C(F)(F)F)cc2O)ccc1Br [Compound 755]
10: weed control effect (activity level), Amaranthus retroflexus ([1]; Dose 3000 g/ha) | weed control effect (activity level), Chenopodiaceae ([2]; Dose 3000 g/ha) | weed control effect (activity level), Rorippa indica ([3]; Dose 3000 g/ha) | weed control effect (activity level), Veronica polita ([4]; Dose 3000 g/ha)

CS(=O)(=O)c1ccc(-c2nnc(C(F)(F)F)cc2O)cc1 [Compound 114]
10: weed control effect (activity level), Amaranthus retroflexus ([1]; dose 1000 g/ha) | weed control effect (activity level), Chenopodiaceae ([2]; dose 1000 g/ha) | weed control effect (activity level), Rorippa indica ([3]; dose 1000 g/ha) | weed control effect (activity level), Veronica polita ([4]; dose 1000 g/ha)

Cn1ncc(C(F)F)c1-c1nnc(C(F)(F)F)cc1O [Compound 824]
10: weed control effect (activity level), Amaranthus retroflexus ([1]; Dose 3000 g/ha) | weed control effect (activity level), Chenopodiaceae ([2]; Dose 3000 g/ha) | weed control effect (activity level), Rorippa indica ([3]; Dose 3000 g/ha) | weed control effect (activity level), Veronica polita ([4]; Dose 3000 g/ha)

Cn1nc(C(F)F)cc1-c1nnc(C(F)(F)F)cc1O [Compound 794]
10: weed control effect (activity level), Amaranthus retroflexus ([1]; Dose 3000 g/ha) | weed control effect (activity level), Chenopodiaceae ([2]; Dose 3000 g/ha) | weed control effect (activity level), Rorippa indica ([3]; Dose 3000 g/ha) | weed control effect (activity level), Veronica polita ([4]; Dose 3000 g/ha)

Oc1cc(C(F)(F)F)nnc1-c1ccc(Cl)c(F)c1 [Compound 745]
10: weed control effect (activity level), Amaranthus retroflexus ([1]; Dose 3000 g/ha) | weed control effect (activity level), Chenopodiaceae ([2]; Dose 3000 g/ha) | weed control effect (activity level), Rorippa indica ([3]; Dose 3000 g/ha) | weed control effect (activity level), Veronica polita ([4]; Dose 3000 g/ha)

Oc1cc(C(F)(F)F)nnc1-c1ccccc1F [Compound 26]
10: weed control effect (activity level), Amaranthus retroflexus ([1]; dose 1000 g/ha) | weed control effect (activity level), Chenopodiaceae ([2]; dose 1000 g/ha) | weed control effect (activity level), Rorippa indica ([3]; dose 1000 g/ha) | weed control effect (activity level), Veronica polita ([4]; dose 1000 g/ha)

CCc1cccc(-c2nnc(C(F)(F)F)cc2OS(=O)(=O)CS(C)(=O)=O)c1 [Compound 1-123]
10: weed control effect, Amaranthus retroflexus (activity level) ([1]; Dose 3000 g/ha) | weed control effect, Chenopodiaceae (activity level) ([2]; Dose 3000 g/ha) | weed control effect, Rorippa indica (activity level) ([3]; Dose 3000 g/ha) | weed control effect, Veronica polita (activity level) ([4]; Dose 3000 g/ha)

Oc1cc(C(F)(F)F)nnc1-c1ccc2ncccc2c1 [Compound 714]
10: weed control effect (activity level), Amaranthus retroflexus ([1]; Dose 3000 g/ha) | weed control effect (activity level), Chenopodiaceae ([2]; Dose 3000 g/ha) | weed control effect (activity level), Rorippa indica ([3]; Dose 3000 g/ha) | weed control effect (activity level), Veronica polita ([4]; Dose 3000 g/ha)

CCCOC(=S)Oc1cc(C(F)(F)F)nnc1-c1ccc(OC)cc1 [Compound 1-156]
10: weed control effect, Amaranthus retroflexus (activity level) ([1]; Dose 3000 g/ha) | weed control effect, Chenopodiaceae (activity level) ([2]; Dose 3000 g/ha) | weed control effect, Rorippa indica (activity level) ([3]; Dose 3000 g/ha) | weed control effect, Veronica polita (activity level) ([4]; Dose 3000 g/ha)

Oc1cc(C(F)(F)F)nnc1-c1cc(C(F)(F)F)ccc1F [Compound 50]
10: weed control effect (activity level), Amaranthus retroflexus ([1]; dose 1000 g/ha) | weed control effect (activity level), Chenopodiaceae ([2]; dose 1000 g/ha) | weed control effect (activity level), Rorippa indica ([3]; dose 1000 g/ha) | weed control effect (activity level), Veronica polita ([4]; dose 1000 g/ha)

Oc1cc(C(F)(F)F)nnc1-c1cnc(F)c(F)c1 [Compound 988]
10: weed control effect (activity level), Amaranthus retroflexus ([1]; Dose 3000 g/ha) | weed control effect (activity level), Chenopodiaceae ([2]; Dose 3000 g/ha) | weed control effect (activity level), Rorippa indica ([3]; Dose 3000 g/ha) | weed control effect (activity level), Veronica polita ([4]; Dose 3000 g/ha)

COc1ccc(OCC(=O)Oc2cc(C(F)(F)F)nnc2-c2ccc(F)cc2)cc1 [Compound 1-101]
10: weed control effect, Amaranthus retroflexus (activity level) ([1]; Dose 3000 g/ha) | weed control effect, Chenopodiaceae (activity level) ([2]; Dose 3000 g/ha) | weed control effect, Rorippa indica (activity level) ([3]; Dose 3000 g/ha) | weed control effect, Veronica polita (activity level) ([4]; Dose 3000 g/ha)

Oc1cc(C(F)(F)F)nnc1-c1cnc(Cl)cc1F [Compound 1007]
10: weed control effect (activity level), Amaranthus retroflexus ([1]; Dose 3000 g/ha) | weed control effect (activity level), Chenopodiaceae ([2]; Dose 3000 g/ha) | weed control effect (activity level), Rorippa indica ([3]; Dose 3000 g/ha) | weed control effect (activity level), Veronica polita ([4]; Dose 3000 g/ha)

Oc1cc(C(F)(F)F)nnc1-c1ccc(C2CC2)cc1 [Compound 24]
10: weed control effect (activity level), Amaranthus retroflexus ([1]; dose 2000 g/ha) | weed control effect (activity level), Chenopodiaceae ([2]; dose 2000 g/ha) | weed control effect (activity level), Rorippa indica ([3]; dose 2000 g/ha) | weed control effect (activity level), Veronica polita ([4]; dose 2000 g/ha)
